Measured values as given in the NIST ThermoML archive (doi:10.1021/je049925a).

Settings: Liquid; for speed of sound: Sing-around technique in a fixed-path interferometer; for vapor or sublimation pressure: Closed cell (Static) method

CC(F)F [1,1-difluoroethane]
Settings | speed of sound [m/s]
243.15 K, 138 kPa | 920.2
243.15 K, 442 kPa | 922.3
243.15 K, 595 kPa | 923.2
243.15 K, 1302 kPa | 927.8
243.15 K, 1815 kPa | 931
243.15 K, 2160 kPa | 933.1
243.15 K, 2762 kPa | 936.9
243.15 K, 3217 kPa | 939.9
243.15 K, 3854 kPa | 943.7
243.15 K, 4428 kPa | 947.1
243.15 K, 5359 kPa | 952.7
243.15 K, 6355 kPa | 958.6
243.15 K, 7657 kPa | 966.2
243.15 K, 8846 kPa | 973.1
243.15 K, 10231 kPa | 981
243.15 K, 11681 kPa | 989
243.15 K, 13279 kPa | 997.6
243.15 K, 14943 kPa | 1005.5
243.15 K, 16723 kPa | 1015.9
243.15 K, 17442 kPa | 1019.5
243.15 K, 18731 kPa | 1026.3
243.15 K, 20194 kPa | 1033.7
243.15 K, 22819 kPa | 1046.4
243.15 K, 25117 kPa | 1058.6
243.15 K, 27154 kPa | 1068.9
243.15 K, 30242 kPa | 1084.3
263.15 K, 407 kPa | 822.3
263.15 K, 581 kPa | 823.3
263.15 K, 759 kPa | 824.6
263.15 K, 928 kPa | 825.5
263.15 K, 1550 kPa | 831.3
263.15 K, 2228 kPa | 835.9
263.15 K, 2461 kPa | 837.6
263.15 K, 3130 kPa | 842.9
263.15 K, 3429 kPa | 844.7
263.15 K, 3914 kPa | 848.6
263.15 K, 5038 kPa | 856.2
263.15 K, 5789 kPa | 861.4
263.15 K, 6568 kPa | 866.7
263.15 K, 7201 kPa | 871
263.15 K, 7967 kPa | 876.3
263.15 K, 8899 kPa | 881.9
263.15 K, 9893 kPa | 888.5
263.15 K, 11531 kPa | 898.7
263.15 K, 13616 kPa | 912
263.15 K, 15466 kPa | 922.7
263.15 K, 17421 kPa | 934.4
263.15 K, 18552 kPa | 941
263.15 K, 19791 kPa | 947.4
263.15 K, 21881 kPa | 959.5
263.15 K, 25895 kPa | 980.9
263.15 K, 27572 kPa | 989.5
263.15 K, 29409 kPa | 998.8
283.15 K, 547 kPa | 722.7
283.15 K, 750 kPa | 724.6
283.15 K, 1038 kPa | 727.4
283.15 K, 1402 kPa | 731.2
283.15 K, 1697 kPa | 733.8
283.15 K, 2322 kPa | 739.5
283.15 K, 2793 kPa | 743.7
283.15 K, 3256 kPa | 747.8
283.15 K, 3975 kPa | 754
283.15 K, 4329 kPa | 756.9
283.15 K, 5020 kPa | 762.5
283.15 K, 6373 kPa | 773.5
283.15 K, 7420 kPa | 781.9
283.15 K, 8061 kPa | 787
283.15 K, 9151 kPa | 795.4
283.15 K, 10246 kPa | 803.6
283.15 K, 11356 kPa | 811.6
283.15 K, 13100 kPa | 824
283.15 K, 14824 kPa | 835.9
283.15 K, 16147 kPa | 844.8
283.15 K, 18020 kPa | 857
283.15 K, 19869 kPa | 868.3
283.15 K, 22681 kPa | 885.6
283.15 K, 24751 kPa | 897.6
283.15 K, 27174 kPa | 911.6
283.15 K, 29569 kPa | 925.1
298.15 K, 660 kPa | 648
298.15 K, 1153 kPa | 653.4
298.15 K, 1656 kPa | 658.8
298.15 K, 2142 kPa | 663.6
298.15 K, 3104 kPa | 674.1
298.15 K, 3609 kPa | 679.2
298.15 K, 4115 kPa | 684.3
298.15 K, 5023 kPa | 692.9
298.15 K, 5998 kPa | 702.2
298.15 K, 6939 kPa | 710.9
298.15 K, 8037 kPa | 720.6
298.15 K, 9271 kPa | 731.2
298.15 K, 10321 kPa | 740.1
298.15 K, 11735 kPa | 751.5
298.15 K, 13300 kPa | 763.9
298.15 K, 14789 kPa | 775.3
298.15 K, 16388 kPa | 787.1
298.15 K, 18041 kPa | 799
298.15 K, 19521 kPa | 809.3
298.15 K, 20530 kPa | 816.2
298.15 K, 22781 kPa | 831.1
298.15 K, 24289 kPa | 840.6
298.15 K, 26870 kPa | 856.4
298.15 K, 30717 kPa | 878.8
313.15 K, 1222 kPa | 575.1
313.15 K, 1721 kPa | 581.7
313.15 K, 2288 kPa | 589.2
313.15 K, 2776 kPa | 595.3
313.15 K, 3587 kPa | 605.3
313.15 K, 4184 kPa | 612.4
313.15 K, 4942 kPa | 621
313.15 K, 6282 kPa | 635.8
313.15 K, 7106 kPa | 644.5
313.15 K, 8134 kPa | 655.1
313.15 K, 9180 kPa | 665.6
313.15 K, 9927 kPa | 672.7
313.15 K, 11390 kPa | 686.3
313.15 K, 12765 kPa | 698.6
313.15 K, 15195 kPa | 719.2
313.15 K, 16072 kPa | 726.4
313.15 K, 17264 kPa | 736
313.15 K, 19072 kPa | 749.8
313.15 K, 21055 kPa | 764.7
313.15 K, 22659 kPa | 776.2
313.15 K, 25122 kPa | 793.3
313.15 K, 27530 kPa | 808.2
313.15 K, 29895 kPa | 822.3
333.15 K, 2129 kPa | 478.7
333.15 K, 2606 kPa | 487.2
333.15 K, 3860 kPa | 507.8
333.15 K, 4725 kPa | 520.6
333.15 K, 5932 kPa | 538
333.15 K, 7142 kPa | 552.1
333.15 K, 8008 kPa | 565.1
333.15 K, 9016 kPa | 577.2
333.15 K, 10079 kPa | 589.7
333.15 K, 11228 kPa | 602.3
333.15 K, 13279 kPa | 623.8
333.15 K, 15330 kPa | 643.8
333.15 K, 17092 kPa | 660.1
333.15 K, 18393 kPa | 671.6
333.15 K, 19875 kPa | 684.3
333.15 K, 22222 kPa | 702.8
333.15 K, 24752 kPa | 723.7
333.15 K, 24836 kPa | 723.7
333.15 K, 26902 kPa | 738.8
333.15 K, 29698 kPa | 758.6

Settings | vapor or sublimation pressure [kPa]
243.15 K | 73
263.15 K | 179
283.15 K | 372
298.15 K | 595
313.15 K | 907
333.15 K | 1499
